{"source": "patent US8835660B2", "about": "“Method for extracting organic compounds from aqueous mixtures” (The Regents of the University of California, priority 2010, dated 2014)", "key": {"[1]": {"settings": "cloud-point"}, "[2]": {"settings": "for AcOH in DEB / AcOH in water (final in DEB) / D = AcOH in DEB/AcOH in water / Water in DEB: 25° C., single extraction"}, "[3]": {"assay": "Distribution of ethanol and isobutanol between water and DEB phases", "assay_type": "physicochemical", "settings": "for Amount of EtOH in water (final) / D = conc. of EtOH in DEB/conc. of EtOH in water / Amount of EtOH in DEB (final) / Distribution coefficient of isobutanol (DEB/water) / Amount of iBuOH in water (final) / Amount of iBuOH in DEB (final): single extraction; for Amount of EtOH in DEB (final) / Amount of iBuOH in DEB (final): mass balance", "protocol": "The amount of ethanol and isobutanol in water phase was measured using HPLC (see above for details). The concentrations of ethanol taken were: 8, 6, 3, 2, 1 and 0.5 wt %.\nDistribution coefficient is reported on the basis of HPLC results of aqueous phase and that of mass balance of both the phases. Experiments are currently underway to determine the amount of ethanol, iso butanol in DEB phase. Gas chromatography will be used to quantify the amount of ethanol and isobutanol present in the DEB phase. Water measurements will be done using a Karl Fischer apparatus.\nHere also, distribution coefficient is reported on the basis of HPLC results of aqueous phase and that of mass balance of both the phase."}, "[4]": {"assay": "Distribution of hydroxymethylfurfural and furfural between water and DEB phases", "assay_type": "physicochemical", "settings": "25° C., single extraction; for Amount of furfural in DEB phase (g) (final in DEB phase) / Amount of HMF in DEB phase (g) (final in DEB phase): mass balance", "protocol": "The amounts of hydroxymethylfurfural and furfural in water phase were measured\nusing HPLC (see above for details). […] Distribution coefficient is reported on the basis of HPLC results of aqueous phase and that of mass balance of both the phases. The amount of hydroxymethylfurfural in DEB phase may be quantified using gas chromatography. Water measurements of the separated DEB phase containing hydroxymethylfurfural may be carried out using a Karl Fischer apparatus.\nDistribution coefficient is reported on the basis of HPLC results of aqueous phase and that of mass balance of both the phases. The amount of furfural in DEB phase may be quantified using gas chromatography. Water measurements of the separated DEB phase containing furfural may be carried out using a Karl Fischer apparatus."}, "[5]": {"settings": "4.91 g DEB, 0.33 g AcOH initially in 4.1 g water"}, "[6]": {"settings": "5.8 g DEB, 0.17 g AcOH initially in 4.2 g water"}, "[7]": {"settings": "6.5 g DEB, 0.07 g AcOH initially in 4.3 g water"}, "[8]": {"settings": "4.63 g DEB, 0.99 g EtOH initially in 4.62 g water"}, "[9]": {"settings": "4.71 g DEB, 0.31 g EtOH initially in 4.70 g water"}, "[10]": {"settings": "4.85 g DEB, 0.16 g EtOH initially in 4.86 g water"}, "[11]": {"settings": "4.92 g DEB, 0.11 g EtOH initially in 4.89 g water"}, "[12]": {"settings": "4.97 g DEB, 0.06 g EtOH initially in 4.98 g water"}, "[13]": {"settings": "5.02 g DEB, 0.03 g EtOH initially in 5.03 g water"}, "[14]": {"settings": "4.98 g DEB, 0.0491 g furfural initially in 5.01 g water"}, "[15]": {"settings": "5.02 g DEB, 0.0242 g furfural initially in 4.98 g water"}, "[16]": {"settings": "5.11 g DEB, 0.0141 g furfural initially in 5.05 g water"}, "[17]": {"settings": "5.01 g DEB, 0.0132 g HMF initially in 5.01 g water"}, "[18]": {"settings": "5.01 g DEB, 0.0512 g HMF initially in 5.11 g water"}, "[19]": {"settings": "5.02 g DEB, 0.0251 g HMF initially in 5.03 g water"}, "[20]": {"settings": "4.76 g DEB, 0.26 g iBuOH initially in 4.74 g water"}, "[21]": {"settings": "4.88 g DEB, 0.13 g iBuOH initially in 4.89 g water"}, "[22]": {"settings": "4.93 g DEB, 0.071 g iBuOH initially in 4.92 g water"}, "[23]": {"settings": "5.08 g DEB, 0.028 g iBuOH initially in 5.03 g water"}}, "note": "Where two headings read alike, the source gives them in different places.", "data": [{"molecule": "CCCCOCCOCCOCCCC", "note": "[DEB, diethylene glycol dibutyl ether]", "values": [{"measurement": "DEB solubility in water", "setting": "[1]", "result": "less than 10 ppm"}]}, {"molecule": "CC(=O)O", "note": "[acetic acid]", "values": [{"measurement": "AcOH in DEB", "setting": "[2]; [5]", "result": 0.171, "unit": "grams"}, {"measurement": "AcOH in water (final in DEB)", "setting": "[2]; [5]", "result": 0.163, "unit": "grams"}, {"measurement": "D = AcOH in DEB/AcOH in water", "setting": "[2]; [5]", "result": 1.1}, {"measurement": "AcOH in DEB", "setting": "[2]; [6]", "result": 0.088, "unit": "grams"}, {"measurement": "AcOH in water (final in DEB)", "setting": "[2]; [6]", "result": 0.082, "unit": "grams"}, {"measurement": "D = AcOH in DEB/AcOH in water", "setting": "[2]; [6]", "result": 1.08}, {"measurement": "AcOH in DEB", "setting": "[2]; [7]", "result": 0.033, "unit": "grams"}, {"measurement": "AcOH in water (final in DEB)", "setting": "[2]; [7]", "result": 0.034, "unit": "grams"}, {"measurement": "D = AcOH in DEB/AcOH in water", "setting": "[2]; [7]", "result": 0.98}]}, {"molecule": "CCO", "note": "[ethanol]", "values": [{"measurement": "Amount of EtOH in water (final)", "setting": "[3]; [8]", "result": 0.51, "unit": "grams"}, {"measurement": "D = conc. of EtOH in DEB/conc. of EtOH in water", "setting": "[3]; [8]", "result": 0.94}, {"measurement": "Amount of EtOH in DEB (final)", "setting": "[3]; [8]", "result": 0.48, "unit": "grams"}, {"measurement": "Amount of EtOH in water (final)", "setting": "[3]; [9]", "result": 0.15, "unit": "grams"}, {"measurement": "D = conc. of EtOH in DEB/conc. of EtOH in water", "setting": "[3]; [9]", "result": 1.06}, {"measurement": "Amount of EtOH in DEB (final)", "setting": "[3]; [9]", "result": 0.16, "unit": "grams"}, {"measurement": "Amount of EtOH in water (final)", "setting": "[3]; [10]", "result": 0.073, "unit": "grams"}, {"measurement": "D = conc. of EtOH in DEB/conc. of EtOH in water", "setting": "[3]; [10]", "result": 1.2}, {"measurement": "Amount of EtOH in DEB (final)", "setting": "[3]; [10]", "result": 0.087, "unit": "grams"}, {"measurement": "Amount of EtOH in water (final)", "setting": "[3]; [11]", "result": 0.052, "unit": "grams"}, {"measurement": "D = conc. of EtOH in DEB/conc. of EtOH in water", "setting": "[3]; [11]", "result": 1.11}, {"measurement": "Amount of EtOH in DEB (final)", "setting": "[3]; [11]", "result": 0.058, "unit": "grams"}, {"measurement": "Amount of EtOH in water (final)", "setting": "[3]; [12]", "result": 0.031, "unit": "grams"}, {"measurement": "D = conc. of EtOH in DEB/conc. of EtOH in water", "setting": "[3]; [12]", "result": 0.93}, {"measurement": "Amount of EtOH in DEB (final)", "setting": "[3]; [12]", "result": 0.029, "unit": "grams"}, {"measurement": "Amount of EtOH in water (final)", "setting": "[3]; [13]", "result": 0.014, "unit": "grams"}, {"measurement": "D = conc. of EtOH in DEB/conc. of EtOH in water", "setting": "[3]; [13]", "result": 1.16}, {"measurement": "Amount of EtOH in DEB (final)", "setting": "[3]; [13]", "result": 0.016, "unit": "grams"}]}, {"molecule": "O=Cc1ccco1", "note": "[furfural]", "values": [{"measurement": "Amount of furfural in water phase (g) (final)", "setting": "[4]; [14]", "result": 0.0249, "unit": "g"}, {"measurement": "D = conc. of furfural in DEB/conc. of furfural in water", "setting": "[4]; [14]", "result": 0.98}, {"measurement": "Amount of furfural in DEB phase (g) (final in DEB phase)", "setting": "[4]; [14]", "result": 0.0242, "unit": "g"}, {"measurement": "Amount of furfural in water phase (g) (final)", "setting": "[4]; [15]", "result": 0.0161, "unit": "g"}, {"measurement": "D = conc. of furfural in DEB/conc. of furfural in water", "setting": "[4]; [15]", "result": 0.91}, {"measurement": "Amount of furfural in DEB phase (g) (final in DEB phase)", "setting": "[4]; [15]", "result": 0.0088, "unit": "g"}, {"measurement": "Amount of furfural in water phase (g) (final)", "setting": "[4]; [16]", "result": 0.0069, "unit": "g"}, {"measurement": "D = conc. of furfural in DEB/conc. of furfural in water", "setting": "[4]; [16]", "result": 1.03}, {"measurement": "Amount of furfural in DEB phase (g) (final in DEB phase)", "setting": "[4]; [16]", "result": 0.0071, "unit": "g"}]}, {"molecule": "O=Cc1ccc(CO)o1", "note": "[hydroxymethylfurfural]", "values": [{"measurement": "Amount of HMF in water phase (g) (final)", "setting": "[4]; [17]", "result": 0.0083, "unit": "g"}, {"measurement": "D = conc. of HMF in DEB/conc. of HMF in water", "setting": "[4]; [17]", "result": 0.61}, {"measurement": "Amount of HMF in DEB phase (g) (final in DEB phase)", "setting": "[4]; [17]", "result": 0.0050, "unit": "g"}, {"measurement": "Amount of HMF in water phase (g) (final)", "setting": "[4]; [18]", "result": 0.0321, "unit": "g"}, {"measurement": "D = conc. of HMF in DEB/conc. of HMF in water", "setting": "[4]; [18]", "result": 0.59}, {"measurement": "Amount of HMF in DEB phase (g) (final in DEB phase)", "setting": "[4]; [18]", "result": 0.0191, "unit": "g"}, {"measurement": "Amount of HMF in water phase (g) (final)", "setting": "[4]; [19]", "result": 0.0161, "unit": "g"}, {"measurement": "D = conc. of HMF in DEB/conc. of HMF in water", "setting": "[4]; [19]", "result": 0.54}, {"measurement": "Amount of HMF in DEB phase (g) (final in DEB phase)", "setting": "[4]; [19]", "result": 0.0088, "unit": "g"}]}, {"molecule": "CC(C)CO", "note": "[isobutanol]", "values": [{"measurement": "measured distribution coefficients", "setting": "[3]; 5, 3, 2, and 1 wt % of isobutanol", "result": "2.5-3.5"}, {"measurement": "concentration in DEB relative to concentration in water at equilibrium", "setting": "[3]; DEB and water phases in equilibrium", "result": "2-3 times"}, {"measurement": "Distribution coefficient of isobutanol (DEB/water)", "setting": "[3]; [20]", "result": 2.71}, {"measurement": "Distribution coefficient of isobutanol (DEB/water)", "setting": "[3]; [21]", "result": 3.33}, {"measurement": "Distribution coefficient of isobutanol (DEB/water)", "setting": "[3]; [22]", "result": 2.72}, {"measurement": "Distribution coefficient of isobutanol (DEB/water)", "setting": "[3]; [23]", "result": 3.59}, {"measurement": "Amount of iBuOH in water (final)", "setting": "[3]; [20]", "result": 0.07, "unit": "grams"}, {"measurement": "Amount of iBuOH in DEB (final)", "setting": "[3]; [20]", "result": 0.19, "unit": "grams"}, {"measurement": "Amount of iBuOH in water (final)", "setting": "[3]; [21]", "result": 0.03, "unit": "grams"}, {"measurement": "Amount of iBuOH in DEB (final)", "setting": "[3]; [21]", "result": 0.10, "unit": "grams"}, {"measurement": "Amount of iBuOH in water (final)", "setting": "[3]; [22]", "result": 0.018, "unit": "grams"}, {"measurement": "Amount of iBuOH in DEB (final)", "setting": "[3]; [22]", "result": 0.053, "unit": "grams"}, {"measurement": "Amount of iBuOH in water (final)", "setting": "[3]; [23]", "result": 0.0061, "unit": "grams"}, {"measurement": "Amount of iBuOH in DEB (final)", "setting": "[3]; [23]", "result": 0.0219, "unit": "grams"}]}, {"molecule": "water", "values": [{"measurement": "Water in DEB", "setting": "[2]; [5]", "result": 300, "unit": "µg"}, {"measurement": "Water in DEB", "setting": "[2]; [6]", "result": 100, "unit": "µg"}, {"measurement": "Water in DEB", "setting": "[2]; [7]", "result": 90, "unit": "µg"}, {"measurement": "water content in the DEB phase", "setting": "[2]; after contact experiment with acetic acid solutions", "result": "less than 300 ppm"}]}]}
